The supplement of paper PMC10307832

Key:
Experiment in all cases: relative viability (nuclei count vs DMSO), 5 days (fraction); higher = more cells survive
Carfilzomib + Crizotinib = compound: CC(C)C[C@H](NC(=O)[C@H](CCc1ccccc1)NC(=O)CN1CCOCC1)C(=O)N[C@@H](Cc1ccccc1)C(=O)N[C@@H](CC(C)C)C(=O)[C@@]1(C)CO1 [Carfilzomib] + C[C@@H](Oc1cc(-c2cnn(C3CCNCC3)c2)cnc1N)c1c(Cl)ccc(F)c1Cl [Crizotinib] (partner 1 µM)
Method in brief: (§1)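 One day after seeding in 1536-well plates, lung cancer cell lines were dosed by pin tool. Dosing was either single-drug or a fixed anchor-drug dose plus five library-drug doses (not always all listed) in √10 steps. After 5 days, nuclei were stained in one fix-and-stain step and counted on 4× images, and relative viability is the nuclei count of treated wells over that of vehicle wells, given as the median of duplicate plates.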

Carfilzomib + Decitabine = compound: CC(C)C[C@H](NC(=O)[C@H](CCc1ccccc1)NC(=O)CN1CCOCC1)C(=O)N[C@@H](Cc1ccccc1)C(=O)N[C@@H](CC(C)C)C(=O)[C@@]1(C)CO1 [Carfilzomib] + Nc1ncn([C@H]2C[C@H](O)[C@@H](CO)O2)c(=O)n1 [Decitabine] (partner 2 µM)
Method in brief: as §1

Carfilzomib + OSI-027 = compound: CC(C)C[C@H](NC(=O)[C@H](CCc1ccccc1)NC(=O)CN1CCOCC1)C(=O)N[C@@H](Cc1ccccc1)C(=O)N[C@@H](CC(C)C)C(=O)[C@@]1(C)CO1 [Carfilzomib] + COc1cccc2cc(-c3nc([C@H]4CC[C@H](C(=O)O)CC4)n4ncnc(N)c34)[nH]c12 [OSI-027] (partner 0.5 µM)
Method in brief: as §1

Olaparib + Tozasertib = compound: O=C(c1cc(Cc2n[nH]c(=O)c3ccccc23)ccc1F)N1CCN(C(=O)C2CC2)CC1 [Olaparib] + Cc1cc(Nc2cc(N3CCN(C)CC3)nc(Sc3ccc(NC(=O)C4CC4)cc3)n2)n[nH]1 [Tozasertib] (partner 0.1 µM)
Method in brief: as §1

Row | Cell Line | relative viability (Carfilzomib + Crizotinib; first compound 0.001 µM) | relative viability (Carfilzomib + Crizotinib; first compound 0.003162 µM) | relative viability (Carfilzomib + Crizotinib; first compound 0.01 µM) | relative viability (Carfilzomib + Crizotinib; first compound 0.03162 µM) | relative viability (Carfilzomib + Crizotinib; first compound 0.1 µM) | relative viability (Carfilzomib + Decitabine; first compound 0.001 µM) | relative viability (Carfilzomib + Decitabine; first compound 0.003162 µM) | relative viability (Carfilzomib + Decitabine; first compound 0.01 µM) | relative viability (Carfilzomib + Decitabine; first compound 0.03162 µM) | relative viability (Carfilzomib + Decitabine; first compound 0.1 µM) | relative viability (Carfilzomib + OSI-027; first compound 0.001 µM) | relative viability (Carfilzomib + OSI-027; first compound 0.003162 µM) | relative viability (Carfilzomib + OSI-027; first compound 0.01 µM) | relative viability (Carfilzomib + OSI-027; first compound 0.03162 µM) | relative viability (Carfilzomib + OSI-027; first compound 0.1 µM) | relative viability (Olaparib + Tozasertib; first compound 0.08 µM) | relative viability (Olaparib + Tozasertib; first compound 0.253 µM) | relative viability (Olaparib + Tozasertib; first compound 2.53 µM) | relative viability (Olaparib + Tozasertib; first compound 8 µM)
1 | NCI-H1734 | 0.658 | 0.836 | 0.616 | 0.435 | 0.111 | 0.482 | 0.517 | 0.48 | 0.474 | 0.136 | 0.62 | 0.683 | 0.585 | 0.222 | 0.138 | 0.25 | 0.249 | 0.251 | 0.251
2 | NCI-H1755 | 0.817 | 0.904 | 0.894 | 0.498 | 0.189 | 0.732 | 0.729 | 0.669 | 0.755 | 0.446 | 0.707 | 0.777 | 0.746 | 0.65 | 0.25 | 0.611 | 0.547 | 0.548 | 0.531
3 | NCI-H1915 | 0.879 | 0.927 | 0.887 | 0.434 | 0.069 | 0.257 | 0.296 | 0.24 | 0.259 | 0.106 | 0.596 | 0.654 | 0.59 | 0.457 | 0.0943 | 0.447 | 0.372 | 0.368 | 0.274
4 | NCI-H1944 | 1.02 | 1.2 | 1.09 | 1.07 | 0.302 | 0.405 | 0.447 | 0.449 | 0.453 | 0.234 | 0.389 | 0.489 | 0.474 | 0.46 | 0.173 | 0.217 | 0.198 | 0.228 | 0.231
5 | NCI-H1975 | 0.944 | 0.951 | 0.536 | 0.116 | 0.131 | 0.378 | 0.451 | 0.365 | 0.132 | 0.147 |  | 0.715 | 0.503 | 0.0875 | 0.106 | 0.821 | 0.715 | 0.85 | 0.699
6 | NCI-H1993 | 0.871 | 0.97 | 1.12 | 0.807 | 0.473 | 0.542 | 0.589 | 0.658 | 0.541 | 0.461 | 0.573 | 0.569 | 0.576 | 0.443 | 0.459 | 0.546 | 0.537 | 0.557 | 0.521
7 | NCI-H2009 | 1.07 | 1.14 | 1.09 | 0.37 | 0.0428 | 0.401 | 0.391 | 0.401 | 0.268 | 0.0605 | 0.758 | 0.778 | 0.631 | 0.111 | 0.0867 | 0.81 | 0.678 | 0.761 | 0.648
